Source: patent publication US9963433B2, “Anticancer drugs including the chemical structures of an androgen receptor ligand and a histone deacetylase inhibitor” (Wayne State University, priority 2016, dated 2018)

Legend:
[1] = system: 55 KDa polypeptide (putative Hsp90 fragment); experiment: Western blot of acetylated lysine in C4-2 cells; conditions: 24 h, acetylated lysine antibody, FIG. 4C
Protocol: (§9) Cells were then harvested for western blot analysis using antibody to AR (4A), HSP90 (4B), Acetyl-Lysine (4C) or GAPDH (loading control). ImageJ software was used to determine the intensities of the bands relative to the vehicle control for each protein. The values were then divided by the values for GAPDH within the same samples.
(§10) Western Blot Analysis. Cells were washed once with phosphate buffered saline (PBS) and then lysed with RIPA buffer (150 mM NaCl, 1% Nonidet P-40, 0.5% sodium deoxycholate, 0.1% SDS, 50 mM Tris of pH 8.0) containing a protease inhibitor cocktail (Pierce, Thermo Fisher Scientific). The cell lysates were then incubated on ice for 40 minutes. Total protein concentrations were estimated using the Bradford Assay (Bio-Rad). Protein samples (10-40 ug) were heated at 95° C. for 5 minutes and resolved by electrophoresis on 8% polyacrylamide-SDS gels and electrophoretically transferred to PVDF membranes (Millipore, Billerica, Mass.). The membranes were then probed overnight at 4° C. with the appropriate primary antibody followed by the appropriate horseradish peroxidase-conjugated secondary antibody.

C4-2 cells = experiment: MTT cell viability assay, C4-2 cells; type: cell-based
Protocol: (§1) (6A) C4-2 cells were seeded in 96-well plates and 24 h later, they were treated with the indicated compounds (0.1 μM-10 μM) or with vehicle (DMSO). Cell viability was measured by the MTT assay on Days 0 and 3 of treatment. EC50 values were calculated from nonlinear regression plots using GraphPad Prism5 software. […] Cell viability was measured by the MTT assay on Days 0 and 3 of treatment. […] Cell viability was measured by the MTT assay on Days 0 and 3 of treatment. […] (6D) 22Rv1 cells were infected with AR shRNA lentivirus, or control shRNA. 72 h after infection, cells were plated and viable cells were measured by the MTT assay on the indicated days (6D, bottom). Cells were also harvested for western blot analysis and probed with antibody to AR, which was also reactive with the AR splice variant AR-V7 (6D, top). (6E) 22Rv1 cells were seeded in 96-well plates and 24 h later, they were treated with the indicated compounds (0.1 μM-10 μM) or with vehicle (DMSO). Cell viability was measured by the MTT assay on Days 0 and 3 of treatment. EC50 values were calculated from nonlinear regression plots using GraphPad Prism5 software.
(§2) Cell Proliferation Assay. Cells were trypsinized and 6000 cells/well were seeded in 96-well plates coated with poly-D-lysine. The cells were seeded in phenol red-free medium supplemented with 10% FBS, 100 units/ml penicillin, 100 μg/ml streptomycin, 2 mM L-glutamine mixture and sodium pyruvate (1 mM) for C4-2 cells and phenol red-free medium supplemented with 10% FBS, 100 units/ml penicillin, 100 μg/ml streptomycin and 2 mM L-glutamine mixture for 22Rv1 cells. The cells were grown at 37° C. in 5% CO2. Twenty four hours after seeding in the 96-well plates, the cells were treated with indicated compound or DMSO (vehicle). The culture medium was not changed during the time course of the assay. On Day zero and on Day 3, cell viability was determined using the MTT assay. MTT (10 μL, 5 mg/mL) was added to each well and incubated for 2 h at 37° C. The formazan crystal sediments were dissolved in 100 μL of DMSO, and the absorbance at 570 nm was measured using the BioTek Synergy 2 Microplate Reader (BioTek, Winooski, Vt.). […] IC50 values were calculated from nonlinear […] plots using GraphPad Prism5 software.

p21 mRNA in C4-2 cells = experiment: p21 mRNA induction in C4-2 cells; conditions: 48 h, FIG. 5B
DLC1 mRNA in C4-2 cells = experiment: In situ HDACi activity: DLC1 mRNA in C4-2 cells; type: cell-based; conditions: 48 h, normalized to GAPDH mRNA, FIG. 2F
Protocol: (§3) FIGS. 2A-2F show measurement of intrinsic and in situ HDACi activities. […]. IC50 values were calculated from nonlinear regression plots using GraphPad Prism5 software. (2B) Enz, 1002 and 3-52 were tested against HeLa cell nuclear extract at 10 μM and 25 μM and TSA (1 μM) was used as positive control. […] Recombinant HDAC6 was incubated with each drug at the indicated concentrations. IC50 values were calculated from nonlinear regression plots using GraphPad Prism5 software. (2D) Enz, 1002 and 3-52 were tested against recombinant HDAC6 at 10 μM and 25 μM and TSA (1 μM) was used as positive control. […]
(§4) Cell Culture and Reagents. LNCaP and 22Rv1 cell lines were from American Type Culture Collection (Manassas, Va.). C4-2 cells were kindly provided by Dr. Edwin Sanchez (University of Toledo). LNCaP and C4-2 cells were routinely grown at 37° C. in 5% CO2 in RPMI 1640 medium supplemented with 10% FBS (Invitrogen); 100 units/ml penicillin, 100 μg/ml streptomycin, 2 mM L-glutamine mixture (Invitrogen); and sodium pyruvate (1 mM) (Invitrogen). 22Rv1 cells were grown in RPMI 1640 medium supplemented with 10% FBS (Invitrogen); 100 units/ml penicillin, 100 μg/ml streptomycin, 2 mM L-glutamine mixture (Invitrogen). Affinity-purified rabbit anti-human antibody to AR (sc-816) and mouse anti-human antibody to GAPDH (sc-47724) were purchased from Santa Cruz Biotechnology (Santa Cruz, Calif.). Affinity-purified rabbit anti-human antibody to Hsp90 (C45G5) #4877 and rabbit anti-human antibody to acetylated lysine #9441 were purchased from Cell Signaling Technology. R1881 was kindly provided by Dr. Stephan Patrick (Karmanos Cancer Institute). All experiments were conducted using phenol-red free growth media. For hormone depletion, cells were grown in phenol-red free RPMI 1640 medium supplemented with 10% charcoal stripped FBS (Sigma-Aldrich) which was heat inactivated at 56° C. for thirty minutes, and a mixture of 100 units/ml penicillin, 100 μg/ml streptomycin and 2 mM L-glutamine for 96 h.
(§5) RNA isolation, Reverse Transcription, and Real Time PCR. Total RNA was isolated from cells using the RNeasy Mini Kit (Qiagen). Reverse transcription PCR was then performed using 500 ng of total RNA with random primers and using the high-capacity complementary DNA Archive kit (Applied Biosystems). The complementary DNA from this reaction was measured using quantitative real time PCR using the StepONE Plus Real Time PCR system (Life Technologies Corporation, Carlsbad, Calif.). All reactions were performed in triplicate and normalized to glyceraldehyde-3-phosphate-dehydrogenase values in the same samples. All primers and Taqman probes were purchased from the applied Biosystems inventory (Invitrogen) (Patki et al., 2015).
. […]

[2] = system: AR chromatin association at KLK3 ARE enhancer elements; experiment: ChIP of AR at KLK3 enhancer in C4-2 cells; conditions: compound 10 μM, R1881 1 nM or 10 nM, 2 h, FIG. 3C
Protocol: (3C) C4-2 cells plated in hormone-depleted medium were treated with either vehicle, R1881, or the indicated compound for 2 h. Cells were harvested and subjected to ChIP using AR antibody. Taqman probes targeting ARE enhancer elements associated with the KLK3 gene were used to quantify the immunoprecipitated chromatin.
Chromatin Immunoprecipitation (ChIP). […] The ChIP signals were measured by quantitative real time PCR analysis of the immunoprecipitated products.
As a target site for the ChIP assay, the well-established AR binding enhancer elements located 4 kb upstream of the transcription initiation site of the KLK3 gene was chosen.

p21 mRNA in LNCaP cells = experiment: p21 mRNA induction in LNCaP cells; conditions: 10 μM, 48 h, FIG. 5A
DLC1 mRNA in LNCaP cells = experiment: In situ HDACi activity: DLC1 mRNA in LNCaP cells; type: cell-based; conditions: 10 μM, 48 h, normalized to GAPDH mRNA, FIG. 2E
Protocol: as §3, §4, §5
. […]

Hsp90 = experiment: Western blot of Hsp90 protein in C4-2 cells; conditions: 1 μM to 10 μM, 24 h, relative to GAPDH, FIG. 4B
Protocol: as §9, §10

human recombinant HDAC6 = target: T1, human recombinant HDAC6 (Homo sapiens, UniProt Q9UBN7); experiment: HDAC6 fluorometric assay, recombinant enzyme; type: biochemical; conditions: tested at 10 μM and 25 μM; FIG. 2D
T1 construct: purchased Enzo Life Sciences BML-AK516
T1 sequence (Q9UBN7 1-1215): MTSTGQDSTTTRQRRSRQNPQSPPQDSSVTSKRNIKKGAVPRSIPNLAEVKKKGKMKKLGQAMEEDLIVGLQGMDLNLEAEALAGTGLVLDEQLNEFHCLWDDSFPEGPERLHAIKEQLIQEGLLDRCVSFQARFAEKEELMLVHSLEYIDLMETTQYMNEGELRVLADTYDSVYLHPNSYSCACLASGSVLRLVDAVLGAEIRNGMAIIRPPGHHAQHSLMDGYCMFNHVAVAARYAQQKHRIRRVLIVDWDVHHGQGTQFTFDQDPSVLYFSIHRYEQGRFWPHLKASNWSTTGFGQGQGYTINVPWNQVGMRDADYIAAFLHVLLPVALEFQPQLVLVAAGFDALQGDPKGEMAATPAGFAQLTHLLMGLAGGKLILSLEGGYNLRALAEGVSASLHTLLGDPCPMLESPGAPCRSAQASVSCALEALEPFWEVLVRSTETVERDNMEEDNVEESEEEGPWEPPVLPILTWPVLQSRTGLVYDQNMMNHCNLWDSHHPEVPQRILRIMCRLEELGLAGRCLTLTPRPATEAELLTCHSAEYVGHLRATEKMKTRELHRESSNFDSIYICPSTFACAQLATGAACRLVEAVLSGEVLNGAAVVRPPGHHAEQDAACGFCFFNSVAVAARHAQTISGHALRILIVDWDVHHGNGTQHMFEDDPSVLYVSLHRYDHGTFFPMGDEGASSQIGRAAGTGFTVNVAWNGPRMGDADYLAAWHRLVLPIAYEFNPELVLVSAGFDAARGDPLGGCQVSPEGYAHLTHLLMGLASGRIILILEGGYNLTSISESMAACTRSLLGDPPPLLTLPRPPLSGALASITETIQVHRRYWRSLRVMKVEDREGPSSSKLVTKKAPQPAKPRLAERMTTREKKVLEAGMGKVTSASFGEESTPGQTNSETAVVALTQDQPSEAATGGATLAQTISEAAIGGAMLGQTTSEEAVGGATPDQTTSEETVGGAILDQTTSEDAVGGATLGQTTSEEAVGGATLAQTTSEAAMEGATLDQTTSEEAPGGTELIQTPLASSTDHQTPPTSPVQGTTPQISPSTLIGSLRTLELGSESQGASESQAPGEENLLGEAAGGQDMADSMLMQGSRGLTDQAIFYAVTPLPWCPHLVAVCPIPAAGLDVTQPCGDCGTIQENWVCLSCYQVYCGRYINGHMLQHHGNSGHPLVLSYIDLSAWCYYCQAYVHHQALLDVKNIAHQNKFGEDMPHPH
Protocol: (§6) FIGS. 2A-2F show measurement of intrinsic and in situ HDACi activities. […] IC50 values were calculated from nonlinear regression plots using GraphPad Prism5 software. […] Recombinant HDAC6 was incubated with each drug at the indicated concentrations. IC50 values were calculated from nonlinear regression plots using GraphPad Prism5 software.
(§7) HDAC activity assay. In vitro HDAC inhibition was measured by using the HDAC fluorimetric assay/drug discovery Kit (Enzo Life Sciences, BML-AK500) and the HDAC6 fluorometric drug discovery kit (Enzo Life Sciences, BML-AK516) following the manufacturer's protocols and instructions. IC50 values were calculated from nonlinear […] plots using GraphPad Prism5 software.
(§8) HDAC1 and HDAC2 are enriched in nuclear extracts whereas HDAC6 is a cytosolic enzyme that is the principal modulator of the acetylation status of Hsp90. […] Again, TSA served as the positive control in FIG. 2D.

[3] = system: HDACs from Hela cell nuclear extract; type: biochemical; conditions: HeLa cell nuclear extract; tested at 10 μM and 25 μM; FIG. 2B
Protocol: as §6, §7, §8

22Rv1 cells = experiment: MTT cell viability assay, 22Rv1 cells; type: cell-based; conditions: Day 3, 0.1 μM-10 μM, FIG. 6E
Protocol: as §1, §2

O=C(CCCCCCC(=O)Nc1ccccc1)NO [SAHA, suberanilohydroxamic acid, reference compound]
hyper-acetylation of a 55 KDa polypeptide [1]: hyper-acetylation of a 55 KDa polypeptide | cell death (viable cells below the number on Day 0) (C4-2 cells; C4-2 cells, 5 μM, MTT Day 3 relative to Day 0, FIG. 6C): caused cell death | p21 mRNA expression (p21 mRNA in C4-2 cells): induced p21 mRNA | DLC1 mRNA expression (DLC1 mRNA in C4-2 cells): strongly up-regulated | chromatin association of AR (ChIP signal) [2]: basal ChIP signal | p21 mRNA expression (p21 mRNA in LNCaP cells): induced p21 mRNA | DLC1 mRNA expression (DLC1 mRNA in LNCaP cells): strongly up-regulated | Hsp90 protein level (degradation) (Hsp90): a decrease in Hsp90 was evident at the higher doses

CCOC(=O)/C=C/c1ccc(N2C(=S)N(c3ccc(C#N)c(C(F)(F)F)c3)C(=O)C2(C)C)cc1F [Compound 1002, (E)-ethyl-3-(4-(3-(4-cyano-3-(trifluoromethyl)phenyl)-5,5-dimethyl-4-oxo-2-thioxoimidazolidin-1-yl)-2-fluorophenyl)acrylate]
effect on C4-2 cell growth (C4-2 cells; MTT, Day 3, up to 10 μM, FIG. 6A): unable to appreciably inhibit C4-2 cell growth | inhibitory activity against HDAC6 (human recombinant HDAC6): did not show significant inhibitory activity | inhibition of nuclear HDAC activity [3]: did not inhibit nuclear HDAC activity even up to a concentration of 25 μM | effect on growth of 22Rv1 cells (22Rv1 cells): modest effect at high concentrations
